In US20260199369A1, “COMPOUNDS FOR THE TREATMENT OF NEUROMUSCULAR DISORDERS” (NMD PHARMA A/S, priority 2022, published 2026):
Where two headings read alike, the source gives them in different places.

Tests used:
CIC-1 ion channel = target: T1, CIC-1 ion channel (Rattus norvegicus, UniProt P35524); test: Electrophysiological measurement of compound inhibition of CIC-1 in rat muscle (Gm, three micro-electrodes technique); assay type: cell-based; settings: Gm in fibres of whole rat soleus muscle, four increasing compound concentrations; read-out: Potency Range (EC50, inhibition of CIC-1 ion channel)
T1 construct: from tissue; host or cells: whole soleus muscle of 12-14 week old Wistar rats
T1 sequence (P35524 1-994): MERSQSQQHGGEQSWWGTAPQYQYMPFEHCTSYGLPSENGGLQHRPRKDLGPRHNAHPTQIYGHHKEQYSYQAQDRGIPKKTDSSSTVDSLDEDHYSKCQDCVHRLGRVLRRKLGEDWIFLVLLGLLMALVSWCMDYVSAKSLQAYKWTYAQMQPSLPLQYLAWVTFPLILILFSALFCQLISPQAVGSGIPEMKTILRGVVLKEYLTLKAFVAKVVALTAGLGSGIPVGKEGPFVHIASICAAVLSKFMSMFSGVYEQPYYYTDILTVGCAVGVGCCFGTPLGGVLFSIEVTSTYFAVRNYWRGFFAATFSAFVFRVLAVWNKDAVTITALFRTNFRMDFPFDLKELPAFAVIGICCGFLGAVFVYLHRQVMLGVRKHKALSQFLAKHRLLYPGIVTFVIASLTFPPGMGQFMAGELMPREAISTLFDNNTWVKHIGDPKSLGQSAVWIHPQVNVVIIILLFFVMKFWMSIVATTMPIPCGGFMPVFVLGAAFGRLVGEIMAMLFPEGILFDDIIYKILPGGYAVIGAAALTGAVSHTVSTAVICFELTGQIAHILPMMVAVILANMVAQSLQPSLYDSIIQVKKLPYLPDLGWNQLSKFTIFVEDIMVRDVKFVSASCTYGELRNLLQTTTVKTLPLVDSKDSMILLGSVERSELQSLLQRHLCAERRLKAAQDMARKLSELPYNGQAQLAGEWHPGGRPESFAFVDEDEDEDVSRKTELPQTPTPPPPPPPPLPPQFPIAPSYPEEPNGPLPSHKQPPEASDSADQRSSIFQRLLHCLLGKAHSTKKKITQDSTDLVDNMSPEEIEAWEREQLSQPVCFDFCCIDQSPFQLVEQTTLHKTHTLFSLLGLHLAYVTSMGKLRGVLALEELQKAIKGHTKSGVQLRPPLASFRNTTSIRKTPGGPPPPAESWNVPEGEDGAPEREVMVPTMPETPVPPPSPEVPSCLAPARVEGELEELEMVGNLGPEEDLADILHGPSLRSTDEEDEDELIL
Experimental: Apparent CIC-1 affinity was reported by the concentration of compound at which 50% of the compound's full inhibition of CIC-1 was observed (EC50) (see also WO2019/115777).
Experimentally, Gm was measured in individual fibres of whole rat soleus muscles using a three micro-electrodes technique described in this example and in full detail elsewhere (Riisager et al., Determination of cable parameters in skeletal muscle fibres during repetitive firing of action potentials. Journal of Physiology, 2014, 592, 4417-4429). Briefly, intact rat soleus muscles were dissected out from 12-14 week old Wistar rats and placed in an experimental chamber that was perfused with a standard Krebs Ringer solution containing 122 mM NaCl, 25 mM NaHCO3, 2.8 mM KCl, 1.2 mM KH2PO4, 1.2 mM MgSO4, 1.3 mM CaCl2), 5.0 mM D-glucose. During experiments, the solution was kept at approx. 30° C. and continuously equilibrated with a mixture of 95% O2 and 5% CO2, pH ~7.4. The experimental chamber was placed in Nikon upright microscope that was used to visualize individual muscle fibres and the three electrodes (glass pipettes filled with 2 M potassium citrate). For Gm measurements, the electrodes were inserted into the same fibre with known inter-electrode distances of 0.35-0.5 mm (V1-V2, X1) and 1.1-1.5 mm (V1-V3, X3). The membrane potential of the impaled muscle fibre was recorded by all electrodes. Two of the electrodes were furthermore used to inject 50 ms current pulses of −30 nA. […] The steady state voltage deflection at each distance was divided by the magnitude of current injected (−30 nA) and the resulting transfer resistances were plotted against inter-electrode distance and the data was fitted to a mono-exponential function from which Gm could be calculated using linear cable theory.
To establish a dose response relationship, Gm was first determined in 10 muscle fibres in the absence of compound and then at four increasing compound concentrations with Gm determinations in 5-10 fibres at each concentration. The average Gm values at each concentration were plotted against compound concentration and the data was fitted to sigmoidal function to obtain an EC50 value.

[1] = tested on: isolated rat soleus muscles; test: Measurement of force in an in vitro model: recovery of contractile force of isolated rat soleus nerve-muscle preparation after tubocurarine; settings: 40 min, read-out: Point increase (%): percentage increase of initial force that was restored; for activation at 50 µM: 50 μM of test compound
Experimental: The current disclosure relates to compounds that inhibit CIC-1 ion channels and increase muscle excitability and thereby improve muscle function in clinical conditions where muscle activation is failing. Such conditions result in loss of contractile function of skeletal muscle, weakness and excessive fatigue. In this series of experiments the compounds were tested for their ability to restore contractile function of isolated rat muscle when the neuromuscular transmission had been compromised akin to neuromuscular disorders.
Experimentally, soleus muscles from 4-5 wk old rats were isolated with the motor nerve remaining attached. The nerve-muscle preparations were mounted in experimental setups that enabled electrical stimulation of the motor nerve. Stimulation of the motor nerve led to activation of the muscle fibres and ensuing force production that was recorded. The nerve-muscle preparations were also in these experiments incubated in the standard Krebs Ringer (see example 15) and the solution was heated to 30° C. and continuously equilibrated with a mixture of 95% O2 and 5% CO2, pH ~7.4.
After mounting the nerve-muscle preparation in the experimental setup, the contractile function of the muscle was initially assessed under the control conditions. Sub-maximal concentration of tubocurarine (115 nM), an acetylcholine receptor antagonist, was then added to the experimental bath to impose partial inhibition of the ability of the motor nerve to activate the muscle fibres. The experimental condition mimics the failing neuromuscular transmission in a range of neuromuscular disorders. After addition of tubocurarine the contractile force declined over the next 90 minutes to 10-50% of the control force. The test compound was then added to obtain the required compound concentration in the bath and the contractile force recovered was measured. To quantify the ability of the compound to restore force the percentage of the initial force that was restored was determined after 40 mins of compound exposure and the point increase is reported in Tables 3 to 7.

[2] = 10 μM of test compound, tubocurarine 115 nM, after 40 mins of compound exposure
[3] = tubocurarine 115 nM, after 40 mins of compound exposure
[4] = 25 μM of test compound, tubocurarine 115 nM, after 40 mins of compound exposure

Compound	EC50 (CIC-1 ion channel) [nM]	activation at 10 µM [1, 2] [%]	further results
CCN1CCOc2c1cc(Cl)c(F)c2C(=O)O [Compound A-18, 6-Chloro-4-ethyl-7-fluoro-3,4-dihydro-2H-1,4-benzoxazine-8-carboxylic acid]	1000 to 5000	34	
CN1CCSc2c1cc(Cl)c(F)c2C(=O)O [Compound A-19, 6-chloro-7-fluoro-4-methyl-3,4-dihydro-2H-1,4-benzothiazine-8-carboxylic acid]	1000 to 5000	28	
CC(C)CCN1CCOc2c1cc(Cl)c(F)c2C(=O)O [Compound A-17, 6-chloro-7-fluoro-4-(3-methylbutyl)-3,4-dihydro-2H-1,4-benzoxazine-8-carboxylic acid]	5000 to 15000		activation at 50 µM [1, 3]: 29%
COc1ccc(CN2CCOc3cc(Cl)c(F)c(C(=O)O)c32)cc1 [Compound A-58, 7-Chloro-6-fluoro-4-[(p-methoxyphenyl)methyl]-3,4-dihydro-2H-1,4-benzoxazine-5-carboxylic acid]	200 to 1000	35	
CN1CCN(C)c2c1cc(Cl)c(F)c2C(=O)O [Compound A-8, 7-Chloro-6-fluoro-1,4-dimethyl-1,2,3,4-tetrahydroquinoxaline-5-carboxylic acid]	1000 to 5000	26	
CN1CCOc2c1cc(Cl)c(F)c2C(=O)O [Compound A-7, 6-Chloro-7-fluoro-4-methyl-3,4-dihydro-2H-1,4-benzoxazine-8-carboxylic acid]	200 to 1000		
COc1c(Cl)cc2c(c1C(=O)O)OCCN2C [Compound A-2, 6-Chloro-7-methoxy-4-methyl-3,4-dihydro-2H-1,4-benzoxazine-8-carboxylic acid]	200 to 1000	32	
Cc1ccc(CN2CCOc3cc(Cl)c(F)c(C(=O)O)c32)cc1 [Compound A-60, 7-Chloro-6-fluoro-4-[(p-tolyl)methyl]-3,4-dihydro-2H-1,4-benzoxazine-5-carboxylic acid]	200 to 1000	17	
CN1CCCOc2c1cc(Cl)c(F)c2C(=O)O [Compound A-13, 7-Chloro-8-fluoro-5-methyl-2,3,4,5-tetrahydro-1,5-benzoxazepine-9-carboxylic acid]	1000 to 5000	30	
COc1c(F)cc2c(c1C(=O)O)OCCN2C [Compound A-30, 6-Fluoro-7-methoxy-4-methyl-3,4-dihydro-2H-1,4-benzoxazine-8-carboxylic acid]	200 to 1000		activation at 10 µM [1]: 39%
O=C(O)c1c(F)cc(Cl)c2c1OCCN2 [Compound A-5, 5-Chloro-7-fluoro-3,4-dihydro-2H-1,4-benzoxazine-8-carboxylic acid]	5000 to 15000		activation at 50 µM [1, 3]: 44%
COc1c(Cl)cc2c(c1C(=O)O)OCCO2 [Compound A-1, 7-Chloro-6-methoxy-2,3-dihydro-1,4-benzodioxine-5-carboxylic acid]	5000 to 15000		activation at 50 µM [1, 3]: 31%
O=C(O)c1c(F)c(Cl)cc2c1N(Cc1ccsc1)CCO2 [Compound A-54, 7-Chloro-6-fluoro-4-[(thiophen-3-yl)methyl]-3,4-dihydro-2H-1,4-benzoxazine-5-carboxylic acid]	200 to 1000	28	
COc1c(Cl)cc2c(c1C(=O)O)SCCN2C [Compound A-29, 6-Chloro-7-methoxy-4-methyl-3,4-dihydro-2H-1,4-benzothiazine-8-carboxylic acid]	200 to 1000	43	
CN1CC(C)(C)Oc2c1cc(Cl)c(F)c2C(=O)O [Compound A-9, 6-Chloro-7-fluoro-2,2,4-trimethyl-3,4-dihydro-2H-1,4-benzoxazine-8-carboxylic acid]	1000 to 5000	37	
CN1CCOc2c1cc(F)c(Cl)c2C(=O)O [Compound A-4, 7-Chloro-6-fluoro-4-methyl-3,4-dihydro-2H-1,4-benzoxazine-8-carboxylic acid]	1000 to 5000	36	
O=C(O)c1c(F)c(Cl)cc2c1OCCN2 [Compound A-6, 6-Chloro-7-fluoro-3,4-dihydro-2H-1,4-benzoxazine-8-carboxylic acid]	5000 to 15000	19	
CCN1CCOc2c1cc(Cl)c(OC)c2C(=O)O [Compound A-28, 6-Chloro-4-ethyl-7-methoxy-3,4-dihydro-2H-1,4-benzoxazine-8-carboxylic acid]	200 to 1000		activation at 25 µM [1]: 36%
COc1c(Cl)cc2c(c1C(=O)O)OCCN2Cc1ccsc1 [Compound A-36, 6-Chloro-7-methoxy-4-[(thiophen-3-yl)methyl]-3,4-dihydro-2H-1,4-benzoxazine-8-carboxylic acid]	1000 to 5000		activation at 25 µM [1, 4]: 36%
CN1CCOc2cc(Cl)c(F)c(C(=O)O)c21 [Compound A-3, 7-Chloro-6-fluoro-4-methyl-3,4-dihydro-2H-1,4-benzoxazine-5-carboxylic acid]	1000 to 5000		activation at 10 µM [1]: 41%
CCCN1CCOc2c1cc(Cl)c(F)c2C(=O)O [Compound A-21, 6-Chloro-7-fluoro-4-propyl-3,4-dihydro-2H-1,4-benzoxazine-8-carboxylic acid]	1000 to 5000		activation at 25 µM [1, 4]: 29%
